Laboratory results as given in ChEMBL document CHEMBL5528033, “Peptide-Drug Conjugates: An Emerging Direction for the Next Generation of Peptide Therapeutics” (J Med Chem, 2024).
Starred links: 1 amine or outer side, 2 acyl side, 3 side chain; linkers in the order of their positions; H or OH if unused. Positions of bridges follow the written chain, without caps; N, C: chain ends. Non-standard residues stand in square brackets, D forms with d. Residues, ends and D or L forms follow the SMILES beside them. *: point of attachment. DAMPA = CN(Cc1cnc2nc(N)nc(N)c2n1)c1ccc(C(=O)*)cc1; γGlu = O=C(O)[C@H](CCC(=O)[*:2])N[*:1]; Pen = CC(C)(S)[C@H](N)C(=O)O

Assays:
[1] = Binding affinity to Dengue virus NS2B-NS3 protease assessed as inhibition constant
[2] = target: Kappa-type opioid receptor (Mus musculus, UniProt P33534); test: Displacement of [3H]DPN from mouse KOR stably expressed in HEK293T cell membrane assessed as inhibition constant by radioligand binding assay; format: cell membranes
[3] = Stability of the compound assessed as half life at pH 6; format: physicochemical; settings: buffer
[4] = Stability in rat plasma assessed as half life measured upto 120 mins; format: ADME, cell-free
[5] = Stability in rat heart assessed as half life measured upto 120 mins; format: ADME, tissue-based

Chain of Kappa-type opioid receptor (P33534 whole entry): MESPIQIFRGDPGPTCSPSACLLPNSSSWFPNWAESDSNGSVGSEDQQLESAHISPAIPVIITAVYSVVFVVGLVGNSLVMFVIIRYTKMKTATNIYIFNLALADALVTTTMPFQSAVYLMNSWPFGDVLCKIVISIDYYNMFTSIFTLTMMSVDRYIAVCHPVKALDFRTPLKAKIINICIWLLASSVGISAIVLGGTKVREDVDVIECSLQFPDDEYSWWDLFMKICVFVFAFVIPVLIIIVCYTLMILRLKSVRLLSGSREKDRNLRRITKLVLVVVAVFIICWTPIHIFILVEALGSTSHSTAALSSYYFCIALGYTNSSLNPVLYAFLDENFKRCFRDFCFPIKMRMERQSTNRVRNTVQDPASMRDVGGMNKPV

CCCC[C@@H](NC(=O)[C@H](CCCCN)NC(=O)[C@H](CCCNC(=N)N)NC(=O)c1ccc(/C=C(\C#N)C(=O)NC2CC2)cc1)C(N)=O
Ki [1]: 4.9 µM

C[C@H](O)[C@@H]1NC(=O)[C@H](Cc2ccc(O)cc2)NC(=O)[C@@H](C)NC(=O)[C@@H](Cc2ccc(O)cc2)NC(=O)CSC[C@@H](C(=O)N[C@@H](C(=O)N[C@H](Cc2ccccc2)C(=O)N[C@@H]2CCC3C4Cc5ccc(O)c6c5C3(CCN4C)[C@H]2O6)[C@@H](C)O)NC(=O)[C@H]([C@H](C)O)NC1=O (stereo partly specified)
Ki [2]: 0.072 µM

C=CCN1CCC23c4c5ccc(O)c4O[C@H]2[C@H](NC(=O)[C@@H](Cc2ccccc2)NC(=O)[C@H](NC(=O)[C@@H]2CSCC(=O)N[C@H](Cc4ccc(O)cc4)C(=O)N[C@H](C)C(=O)N[C@@H](Cc4ccc(O)cc4)C(=O)N[C@@H]([C@H](C)O)C(=O)N[C@@H]([C@H](C)O)C(=O)N2)[C@@H](C)O)CCC3C1C5 (stereo partly specified)
Ki [2]: 0.0039 µM

CC(C)C[C@@H]1NC(=O)[C@H](C(C)C)NC(=O)[C@H](CO)NC(=O)CNC(=O)CNC(=O)[C@H](CCCNC(=N)N)NC(=O)[C@@H]2CCCN2C(=O)[C@@H](NC(=O)CC[C@H](NC(=O)c2ccc(N(C)Cc3cnc4nc(N)nc(N)c4n3)cc2)C(=O)O)C(C)(C)SSC[C@@H](C(=O)O)NC(=O)CNC(=O)[C@H]([C@@H](C)O)NC(=O)[C@H](C(C)C)NC1=O ({DAMPA-γGlu}-[Pen]PRGGSVLVTGC-OH; disulfide 1-12)
half-life [3]: 770 min
half-life [4]: 43.8 min
half-life [5]: 38.1 min
